The values below come from patent US20240285599A1, “Mature-Hepatocyte Transdifferentiation Suppressing Composition” (OSAKA UNIVERSITY, priority 2021, published 2024).

In one assay the test system is L-Traf3/PtenDKO mouse. The assay is described as follows: Oral NIKSMI in L-Traf3/PtenDKO mouse: liver HE staining, KRT19 immunostaining and KRT19 expression. It counts as in vivo. The settings on record: twice a day, 200 mg/kg. Here is the method:
A histopathological slide was deparaffinized with xylene and ethanol. HE staining was performed with hematoxylin and eosin. In immunostaining, antigen activation was performed by heating in Target Retrieval Solution (Dako, USA), followed by blocking with bovine serum albumin and a reaction through use of a primary antibody at 4° C. overnight. A frozen section was dried at room temperature, and was blocked with BSA (Nacalai Tesque, Inc., Japan), followed by a reaction through use of a primary antibody in VECTASTAIN ABC Rabbit IgG Kit (Vector Laboratories, Inc., USA). DAB Substrate Kit (Vector Laboratories, Inc., USA) was used in a staining reaction. The following antibodies were used in the immunostaining: KRT19 (1:500 Abcam, ab52625), TRAF3 (1:100 Abcam, ab217033), NIK (1:400 Novus Biologicals, NBP2-23603), p-RIP3K (1:100 Genentech), and KI67 (1:1,000 Cell Signaling, #12202S). […] The number of Ki67-positive cells in a tumor was counted with ImageJ (Fiji). The immunostaining score of TRAF3 or NIK was calculated by multiplying a staining intensity (of from 0 to 3) by a stained area (%). Human ICC patients were grouped into two groups on the basis of the median immunostaining score of TRAF3 or NIK, and were evaluated for their disease-free survival (DFS) or overall survival (OS). […]

Another assay has as its system HuCCT1 cell xenograft. The assay is described as follows: HuCCT1 xenograft in NOG mouse, oral NIKSMI. As to conditions: twice a day, 200 mg/kg. Type of assay: in vivo. Here is the method: A histopathological slide was deparaffinized with xylene and ethanol. HE staining was performed with hematoxylin and eosin. In immunostaining, antigen activation was performed by heating in Target Retrieval Solution (Dako, USA), followed by blocking with bovine serum albumin and a reaction through use of a primary antibody at 4° C. overnight. A frozen section was dried at room temperature, and was blocked with BSA (Nacalai Tesque, Inc., Japan), followed by a reaction through use of a primary antibody in VECTASTAIN ABC Rabbit IgG Kit (Vector Laboratories, Inc., USA). DAB Substrate Kit (Vector Laboratories, Inc., USA) was used in a staining reaction. […] The number of Ki67-positive cells in a tumor was counted with ImageJ (Fiji). The immunostaining score of TRAF3 or NIK was calculated by multiplying a staining intensity (of from 0 to 3) by a stained area (%). Human ICC patients were grouped into two groups on the basis of the median immunostaining score of TRAF3 or NIK, and were evaluated for their disease-free survival (DFS) or overall survival (OS).
To generate a xenograft tumor, 5×10^6 HuCCT1 cells were mixed with Matrigel at a ratio of 1:1, and the mixture was subcutaneously injected into each of NOG mice. […] During the period, the diameters of the tumors were measured every 3 days, and the tumor sizes were each calculated by using the following equation. […]

Structures are written as SMILES.

As to `COc1cc(C(N)=O)nc(-c2cccc(C#C[C@]3(O)CCN(C)C3=O)c2)c1` [NIKSMI, (R)-6-(3-((3-hydroxy-1-methyl-2-oxopyrrolidin-3-yl)ethynyl)phenyl)-4-methoxypicolinamide], in the assay with L-Traf3/PtenDKO mouse (14 days from age 4 weeks, liver at 6 weeks, FIG. 15A), the “overgrowth of a cholangiocyte in liver (HE staining, KRT19 immunostaining)” value is on record as “significantly suppressed”. Further, in the assay on L-Traf3/PtenDKO mouse (14 days, FIG. 15B), the “expression level of the bile duct marker KRT19 in the liver” value is “significantly suppressed”. Further, the “number of Ki67-positive cells in tumors versus vehicle-administered tumors” value in the assay with HuCCT1 cell xenograft (NOG mouse HuCCT1 xenograft, 14 days, FIG. 23B) was “significantly lower”. The “growth of xenografts derived from the HuCCT1 cells (tumor size)” value with HuCCT1 cell xenograft (NOG mouse, 14 days from day 28 after transplantation, FIG. 23A) was “significantly suppressed”.
